Experimental data reported in ChEMBL document CHEMBL1130564, “The dipeptide neurokinin-1 receptor antagonist S19752 is a potent and long-acting inhibitor of bronchoconstriction when administered by aerosol to the guinea pig in vivo” (Bioorg Med Chem Lett, 1997).

Legend:
[1] = biological target: T1, Substance-K receptor (Oryctolagus cuniculus, UniProt P79218); test: Antagonistic potency for NK-2 receptor was determined in vitro, using isolated rabbit pulmonary artery.; type: functional; details: read-out: pA2 (converted)
T1 sequence (P79218 whole entry): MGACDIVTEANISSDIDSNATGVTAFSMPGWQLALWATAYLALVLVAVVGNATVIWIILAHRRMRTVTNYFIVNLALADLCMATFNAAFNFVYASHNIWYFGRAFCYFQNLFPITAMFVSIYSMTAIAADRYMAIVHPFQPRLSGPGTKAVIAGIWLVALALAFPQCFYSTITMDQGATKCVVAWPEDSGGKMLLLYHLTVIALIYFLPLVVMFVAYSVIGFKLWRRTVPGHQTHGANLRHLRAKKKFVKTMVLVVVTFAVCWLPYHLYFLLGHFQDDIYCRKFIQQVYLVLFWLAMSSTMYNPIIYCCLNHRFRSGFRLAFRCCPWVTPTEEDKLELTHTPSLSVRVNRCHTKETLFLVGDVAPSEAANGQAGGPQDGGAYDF

[2] = organism: Cavia porcellus; test: Inhibition of capsaicin-induced plasma extravasation in guinea pig bronchi; type: functional
[3] = biological target: T2, Neuromedin-K receptor (Rattus norvegicus, UniProt P16177); test: Antagonistic potency for NK-3 receptor was determined in vitro, using isolated rat portal vein.; type: functional; details: read-out: pA2 (converted)
T2 sequence (P16177 whole entry): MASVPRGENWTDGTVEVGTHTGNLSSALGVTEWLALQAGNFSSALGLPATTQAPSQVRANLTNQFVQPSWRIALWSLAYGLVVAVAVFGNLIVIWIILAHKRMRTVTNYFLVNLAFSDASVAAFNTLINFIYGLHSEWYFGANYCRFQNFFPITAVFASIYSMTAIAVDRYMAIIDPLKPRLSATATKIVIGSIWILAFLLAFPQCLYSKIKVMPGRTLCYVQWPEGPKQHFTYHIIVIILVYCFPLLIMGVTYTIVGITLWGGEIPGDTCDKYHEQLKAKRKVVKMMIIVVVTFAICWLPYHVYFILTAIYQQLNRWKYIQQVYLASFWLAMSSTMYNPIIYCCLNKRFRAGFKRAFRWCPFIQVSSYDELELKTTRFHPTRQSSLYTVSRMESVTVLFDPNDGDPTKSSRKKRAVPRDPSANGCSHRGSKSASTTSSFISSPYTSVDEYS

[4] = biological target: T2, Neuromedin-K receptor; test: […] for NK-3 receptor was determined in vitro using isolated rat portal vein.
[5] = biological target: T3, Substance-K receptor (Homo sapiens, UniProt P21452); test: Binding affinity for NK-2 receptor was determined in a radioligand binding assay using chinese hamster ovary cells.; type: cell-based
T3 sequence (P21452 whole entry): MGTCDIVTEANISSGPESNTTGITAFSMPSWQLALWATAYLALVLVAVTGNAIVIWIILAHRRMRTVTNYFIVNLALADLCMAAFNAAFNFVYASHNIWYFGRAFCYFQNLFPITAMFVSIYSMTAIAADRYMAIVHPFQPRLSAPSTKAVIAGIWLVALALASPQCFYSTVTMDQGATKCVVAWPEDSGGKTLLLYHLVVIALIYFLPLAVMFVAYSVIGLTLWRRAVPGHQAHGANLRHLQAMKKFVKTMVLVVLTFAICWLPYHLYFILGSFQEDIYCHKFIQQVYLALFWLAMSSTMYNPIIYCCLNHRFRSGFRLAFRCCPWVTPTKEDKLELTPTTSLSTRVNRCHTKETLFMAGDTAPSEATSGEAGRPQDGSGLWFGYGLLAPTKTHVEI

[6] = biological target: T1, Substance-K receptor; test: […] for NK-2 receptor was determined in vitro using isolated rabbit pulmonary artery.
[7] = biological target: Substance-P receptor (Homo sapiens, UniProt P25103); test: Binding affinity for NK-1 receptor was determined in a radioligand binding assay using IM9 human lymphoblastoma cell line.
[8] = system: Cavia porcellus; test: Tested for the ability to inhibit substance P induced bronchoconstriction in guinea pig and the dose that was effective even after 40 minutes of compound administration, was reported.; type: functional
[9] = system: Cavia porcellus; test: Tested for the ability to inhibit substance P induced bronchoconstriction, in guinea pig, after intravenous administration. The inhibitory dose at 3 minutes, was reported.; type: functional; details: 0.05 h, read-out: ID50 (the source's name)

Chain of Substance-P receptor (P25103 whole entry): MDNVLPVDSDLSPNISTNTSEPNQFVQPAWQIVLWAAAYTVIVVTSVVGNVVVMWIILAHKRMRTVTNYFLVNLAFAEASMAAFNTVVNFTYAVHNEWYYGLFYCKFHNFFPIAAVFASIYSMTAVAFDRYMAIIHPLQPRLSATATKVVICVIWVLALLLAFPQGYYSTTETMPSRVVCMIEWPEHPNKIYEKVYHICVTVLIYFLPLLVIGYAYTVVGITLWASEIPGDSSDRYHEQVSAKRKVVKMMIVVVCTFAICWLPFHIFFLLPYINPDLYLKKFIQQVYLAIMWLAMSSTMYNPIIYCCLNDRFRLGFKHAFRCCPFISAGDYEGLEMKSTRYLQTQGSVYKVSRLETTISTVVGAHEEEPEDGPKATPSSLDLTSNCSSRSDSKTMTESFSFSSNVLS

Row | Structure (SMILES) | Kb [1] [µM] | ED50 ([2]; read-out: ID50 (the source's name)) [mg/kg] | Kb [3] [µM] | pA2 [4] | Ki [5] [µM] | pA2 [6] | Ki [7] [µM] | Effective dose [8] [mM] | ED50 [9] [µmol/kg] | Effective dose [2] [mg/kg]
1 | COc1ccccc1CN[C@H]1CCCN[C@H]1c1ccccc1 [CP-99994] | > 100 | 0.014 | > 100 |  |  |  |  |  |  | 
2 | CN(Cc1ccccc1)C(=O)[C@H](Cc1ccc2ccccc2c1)NC(=O)[C@H]1C[C@H](O)CN1C(=O)c1cn(CCCCc2nnn[nH]2)c2ccccc12 |  |  |  | 5 | 2.4 | 5.6 |  |  |  | 
3 | CC(=O)N[C@@H](Cc1c[nH]c2ccccc12)C(=O)OCc1cc(C(F)(F)F)cc(C(F)(F)F)c1 [L-732138] | 6.31 |  | 6.31 |  |  |  |  |  |  | 
4 | O=C(OCc1cc(C(F)(F)F)cc(C(F)(F)F)c1)[C@H](Cc1c[nH]c2ccccc12)NC(=O)[C@H]1C[C@H](O)CN1C(=O)c1cn(CCCCc2nnn[n-]2)c2ccccc12.[K+] |  |  |  | 5.5 | 4.2 | 5.2 | 0.0024 | 0.5 | 0.05 | 0.026
